# What was measured:
# [1] = biological target: T1, HCV replicon cell lysate sg 1b (NS3) (Hepatitis C virus genotype 1b, UniProt Q9WMX2); test: Whole cell lysate inhibition assay, HCV subgenomic replicon 1b; type: biochemical
# T1 construct: host or cells: Huh7 Clone B cells stably replicating an HCV 1b subgenomic replicon; whole cell lysate
# Experimental: (§1) Huh7-1 cells (also known as Huh7/scr cells) were obtained from F.V. Chisari (The Scripps Research Institute, La Jolla, CA). Clone B HCV sub-genotype 1b Huh7 cells were obtained from the NIH AIDS Research and Reference Reagent Program and have been previously described. Huh7 cells stably replicating the sub-genotype 2a HCV JFH-1 replicon were generated as previously described. All cells were cultured in complete Dulbecco’s modified Eagle’s medium (DMEM) supplemented with 10% fetal bovine serum, 100 units/mL penicillin, […] streptomycin, and 2 mM L-glutamine. HCV replicon cells were maintained in 500 µg/mL Geneticin (Invitrogen). For NS3 inhibition analysis, lysates from parental Huh7 cells and HCV replicon cells were harvested on ice in pre-chilled FRET cell lysis buffer (50 mM Tris-HCl, pH 7.5; 150 mM NaCl, 2 mM EDTA, 1.25% Triton X-100). Lysates were brought to room temperature and mixed 1∶1 with 2× FRET assay buffer (100 mM Tris-HCl, pH 7.5, 300 mM NaCl, 4 mM EDTA, 2.5% Triton X-100, 10 mM GSH, and 4 µM substrate). Fluorescence intensity was continuously monitored for 1 hour, and IC50 values were determined in the same way as biochemical assays.
# [2] = biological target: T2, full-length NS3/4A protease (genotype 1b) (Hepatitis C virus genotype 1b, UniProt Q9WMX2); test: biochemical; conditions: IC50 Full-length NS3/4A, purified full-length NS3/4A, genotype 1b wild-type
# T2 construct: wild-type HCV NS3 (HCV polyprotein residues 1027–1657); His-tag (N); made in house
# Experimental: All assays were done in duplicate in black 384-well plates (Matrix Technologies). […] 200 nL of 10 mM compound (50 µM final concentrations) were then added and incubated for 5 minutes. Enzyme reactions were initiated with 10 µL of substrate Ac-DE-Dap(QXL520)-EE-Abu-ψ-[COO]AS-C(5-FAMsp)-NH2 (Anaspec) (1 µM final concentration), incubated for 6 minutes, and quenched by 10 µL of 10% SDS as a stop solution. Fluorescence intensity was monitored with a POLARstar OPTIMA microplate reader (BMG LABTECH). Each plate contained a total of 32 positive and 32 negative controls.
# (§2) A series of compound concentrations (0 to 200 µM final concentration at 2-fold serial dilution) in 100% DMSO were prepared in a 384-well plate. 20 µL of enzyme solution was distributed to wells, and 0.5 µL of varying concentration of compounds were added and incubated for 5 minutes. The enzyme reaction was initiated by adding 5 µL of the substrate, and its activity was continuously monitored for 6 minutes. The IC50 values were calculated by fitting with the Hill equation (1), with OriginPro 8.5 (OriginLab, Inc.) where y is percent inhibition, x is inhibitor concentration, n is the slope of the concentration–response curve (Hill slope), and Vmax is maximal inhibition from two to four independent assays. [drawing 1] (1)
# full-length NS3/4A = biological target: T3, full-length NS3/4A (Hepatitis C virus genotype 1b, UniProt Q9WMX2); test: Type (mechanism) of enzyme inhibition, kinetic analysis; type: biochemical; conditions: with respect to the substrate, best fit model
# T3 construct: wild-type HCV NS3 (HCV polyprotein residues 1027–1657); His-tag (N); made in house
# Experimental: Full-length NS3/4A activity was monitored in the same way as the primary screening with varying concentration of both inhibitor compounds and substrate (0–8 µM). The concentration of compounds varied from 0 to 20 µM at 1.5-fold dilution factor.
# replicon cells 1b = tested on: replicon cells 1b; design: method as in PMID 19457562, PMID 14578911; conditions: cited from earlier work
# NS3 protease domain = biological target: T4, NS3 protease domain (Hepatitis C virus genotype 1b, UniProt Q9WMX2); test: Fluorescence enzymatic assay with NS3 protease domain alone; type: biochemical
# T4 construct: the full-length NS3/4A and the NS3/4A protease domain alone
# Experimental: as §2
# [3] = biological target: T5, NS3/4A protease genotype 2a (Hepatitis C virus genotype 2a, UniProt Q99IB8); test: Inhibition assay with NS3/4A from genotype 2a; type: biochemical; conditions: IC50 Purified NS3/4A Sub-genotype 2a, genotype 2a
# T5 construct: against the NS3/4A protease domains from three additional HCV genotypes (1a, 2a, and 4d); purchased Anaspec
# Experimental: The inhibitory activity of the final hit compounds from HTS were tested against three other HCV genotypes (1a, 2a, and 4d), along with a control (genotype 1b) and five NS3 drug-resistant mutants. Eight full-length NS3 mutants (V36M, R155K, A156T, A156S, 156V, V36A, T54A, and R155T) were generated by mutagenesis and purified, and the three HCV NS3/4A protease genotypes were purchased from Anaspec. Unfortunately the enzyme activities of the three mutants V36A, T54A, and R155T were much less than that of the rest of the mutants and were insufficient for testing, therefore mutant studies were done with the five active mutants. Continuous kinetic assays were performed against all hit compounds in the same way as the wild-type NS3/4A. As a control, full-length NS3/4A (genotype 1b) was tested under the same conditions for direct comparison for each plate.
# [4] = biological target: T6, HCV replicon cell lysate sg 2a (NS3) (Hepatitis C virus genotype 2a, UniProt Q99IB8); test: Whole cell lysate inhibition assay, HCV subgenomic replicon 2a; type: biochemical
# T6 construct: expressed in transfected cells; host or cells: Huh7 cells stably replicating the JFH-1 subgenomic replicon; whole cell lysate
# Experimental: as §1
# replicon cells 2a = tested on: replicon cells 2a; design: method as in PMID 19457562, PMID 14578911; conditions: cited from earlier work
smiles,measurement,setting,value
"COc1ccc2c(O[C@@H]3C[C@H]4C(=O)N[C@]5(C(=O)O)C[C@H]5/C=C\CCCCC[C@H](NC(=O)OC5CCCC5)C(=O)N4C3)cc(-c3csc(NC(C)C)n3)nc2c1 [BILN-2061, reference compound]","fold increase of IC50, whole cell lysate 1b vs biochemical assay",[1]; sg1b lysate compared to purified enzyme,~8 fold
same,IC50,"[1]; whole cell lysate, subgenomic replicon 1b",37 ± 10 nM
same,IC50,[2],4.6 ± 0.5 nM
same,mechanism of inhibition,full-length NS3/4A,competitive inhibition
same,EC50,replicon cells 1b,3 nM
same,IC50,NS3 protease domain,1.7 ± 0.1 nM
same,IC50,[3],12 ± 1 nM
same,"fold increase of IC50, whole cell lysate 2a vs biochemical assay",[4]; sg2a lysate compared to purified enzyme,~19 fold
same,IC50,"[4]; whole cell lysate, subgenomic replicon 2a",230 ± 30 nM
same,EC50,replicon cells 2a,67 nM

# From PMC3793977, “High-Throughput Screening (HTS) and Hit Validation to Identify Small Molecule Inhibitors with Activity against NS3/4A proteases from Multiple Hepatitis C Virus Genotypes” (PLoS ONE, 2013)
